Assay results published in PubChem BioAssay AID1996.
≈ marks a conversion by molar mass, not a printed value.

conditions: buffer; pH 7.4; 200.0 µM

| Compound | solubility kinetic [µg/mL] |
| --- | --- |
| COC(=O)C(C)N=Cc1ccccc1 (stereo not given) | 21 (≈ 110 µM) |
| CCc1ccc(C(=O)COC(=O)C2=NN(c3ccccc3)C(=O)CC2)cc1 | > 54.7 |
| O=C(COc1ccccc1Cl)Nc1ccc2[nH]c(=O)[nH]c2c1 | 2 (≈ 6.29 µM) |
| Cc1ccnc(NC(=O)CNC(=O)c2ccccc2Br)c1 | 48.5 (≈ 139 µM) |
| Nc1c(C(=O)N2CCOCC2)sc2nc3c(cc12)CCC3 | > 45.5 |
| COc1ccccc1N1CCN(C(=O)c2ccco2)CC1 | > 42.9 |
| C=CCn1cc(/C=C2/NC(=O)NC2=O)c2ccccc21 | 1 (≈ 3.74 µM) |
| CCOC(=O)c1c(N)sc(C(=O)Nc2ccccc2)c1C | 40.7 (≈ 134 µM) |
| Cn1c(N)c(C(=O)COC(=O)c2ccc3ccccc3c2)c(=O)n(C)c1=O | 3.8 (≈ 10.3 µM) |
| Cc1cccc(NC(=O)Cn2cnc3c(oc4ccccc43)c2=O)c1 | < 0.2 |
| NC(=O)c1cc[n+](CC(=O)NC(=O)Nc2ccccc2)cc1 | 30.5 |
| CCOC(=O)c1ccc(-c2ccc3c(c2)CCC3)nc1C | < 0.6 |
| Cc1cc(=O)[nH]c(SCC(=O)NCCC2=CCCCC2)n1 | 38.8 (≈ 126 µM) |
| O=C(c1ccccc1)c1ccc(-n2ccnc2)c([N+](=O)[O-])c1 | 34.4 (≈ 117 µM) |
| O=C(Nc1ccccc1Cl)NC1(C(=O)N2CCC(O)CC2)CCCCC1 | > 57 |
| O=C(COC(=O)c1cccnc1Cl)Nc1ccc(S(=O)(=O)N2CCOCC2)cc1 | 57.5 (≈ 131 µM) |
| O=S(=O)(NCCC1=CCCCC1)c1ccccc1Cl | 22 (≈ 73.4 µM) |
| S=C(NCCc1ccccc1)N1CCN(C2CCCCC2)CC1 | 16.6 (≈ 50.1 µM) |
| Cn1c(O)c(C(=Nc2ccc(F)cc2)c2ccccc2Cl)c(=O)n(C)c1=O | 1.8 (≈ 4.64 µM) |
| O=C(COC(=O)c1ccc([N+](=O)[O-])o1)Nc1ccc(F)cc1 | > 46.2 |
| O=c1[nH]cnc2cc(-c3ccc(Br)cc3)sc12 | 0.6 (≈ 1.95 µM) |
| CSc1ccccc1NC(=O)C1=COCCO1 | > 37.7 |
| COC(=O)C1CCN(c2ccc([N+](=O)[O-])cc2[N+](=O)[O-])CC1 | > 46.4 |
| O=C(O)CN1c2cccc3cccc(c23)S1(=O)=O | 38.2 (≈ 145 µM) |

| Compound | solubility kinetic [µg/mL] |
| --- | --- |
| O=c1[nH]c(SCCN2CCOCC2)nc(O)c1-c1ccccc1 | 44.2 (≈ 133 µM) |
| O=C(Cc1ccc([N+](=O)[O-])cc1)NCc1ccccn1 | > 40.7 |
| CSc1ccc(NC(N)=S)cc1 | > 29.7 |
| CCN(Cc1ccncc1)Cc1ccc(Br)cc1.O=C(O)C(=O)O | 30.6 |
| COc1ccc(C(=O)C2CCCN(Cc3cccc(C)n3)C2)c(OC)c1 (stereo not given) | > 53.2 |
| COc1ccc(-n2c(C)ccc2-c2ccccc2)cn1 | 5.9 (≈ 22.3 µM) |
| Cc1nc(-c2ccc(NC(=O)C3CC3)cc2)cs1 | 13.3 (≈ 51.5 µM) |
| CC1(C)CC(NC(=O)N2c3ccccc3Sc3ccccc32)CC(C)(C)N1 | 43.1 (≈ 113 µM) |
| c1ccc2c(c1)nc(N1CCOCC1)c1ccccc12 | 14.9 (≈ 56.4 µM) |
| Cc1onc(-c2ccccc2Cl)c1C(=O)Nc1ccc(Cl)cn1 | 1 (≈ 2.87 µM) |
| CNc1nc(C23CC4CC(CC(C4)C2)C3)cs1 | 13 (≈ 52.3 µM) |
| Cc1csc(NC(=O)Cn2nc(C)c([N+](=O)[O-])c2C)n1 | > 44.3 |
| CSc1nc(C)[nH]c(=O)c1C#N | > 27.2 |
| COc1ccc(N=Cc2cc(Cl)ccc2O)cc1Cl | 18 (≈ 60.8 µM) |
| Cc1ccc2nc(-c3cc(-c4ccccc4)no3)cn2c1 | 0.3 (≈ 1.09 µM) |
| CC(=O)c1ccc(N2C(=O)CC(N3CCN(S(=O)(=O)c4cc(C)ccc4C)CC3)C2=O)cc1 (stereo not given) | 56.9 (≈ 121 µM) |
| CCNC(=S)N/N=C(\C)c1cccc(OC)c1 | > 37.7 |
| CCOC(=O)c1sc2ncc([N+](=O)[O-])cc2c1N | 3.8 (≈ 14.2 µM) |
| O=C(O)C1CCCN1C(=O)NC1CCCCC1 (stereo not given) | 30.4 (≈ 127 µM) |
| O=S(=O)(c1ccc(Cl)nc1)N1CCN(c2ncccn2)CC1 | 1 (≈ 2.94 µM) |
| O=C(O)CSC1CC(=O)N(c2ccc(Br)cc2)C1=O (stereo not given) | > 51.6 |
| CSCCC(=O)N1CCN(CC(=O)N2CCCC2)CC1 | > 44.9 |
| CCCCOC(=O)C1=C(C)NC(=O)NC1c1ccc(OC)cc1 (stereo not given) | 14.6 (≈ 45.9 µM) |
| CCCCC(=O)N1CCN(c2nc3ccc(F)cc3s2)CC1 | 44.2 (≈ 138 µM) |

| Compound | solubility kinetic [µg/mL] |
| --- | --- |
| O=C(CCc1ccccc1)NC(=S)Nc1cccc(C(=O)O)c1 | > 49.3 |
| CNc1nc(NCc2ccccc2)c2ccccc2n1.Cl | 37 |
| O=C(CN1C(=O)NC2(CCCCCCC2)C1=O)Nc1c(Cl)cccc1Cl | 7.4 (≈ 18.6 µM) |
| CCOC(=O)CCNCc1ccc(OC)c(OC)c1.Cl | > 45.6 |
| CC(=O)Nc1ccc(Oc2nc(-c3ccccn3)nc3ccccc23)cc1 | 6.8 (≈ 19.1 µM) |
| CC1(C)OC(=O)C(=CNc2ccccn2)C(=O)O1 | 28.5 (≈ 115 µM) |
| O=C(Nc1cc(C(=O)N2CCN(c3ccccc3)CC2)ccc1Cl)c1cccs1 | 4.8 (≈ 11.3 µM) |
| Nc1cc(N)nc(SCC(=O)Nc2ccccc2N2CCOCC2)n1 | 49.6 (≈ 138 µM) |
| CCCC(=O)OCC(=O)Nc1ccccc1C#N | > 36.9 |
| Cc1cccc(N2CCN(C(=O)CCc3nc4ccccc4c(=O)[nH]3)CC2)c1C | 2 (≈ 5.12 µM) |
| COc1ccc(OC)c2sc(Cl)nc12 | 18.4 (≈ 80.1 µM) |
| Cc1cc(C)c2c(CC(=O)NC3CCS(=O)(=O)C3)coc2c1 (stereo not given) | 48.2 (≈ 150 µM) |
| Cn1c(=O)c(=O)n(C)c2cc([N+](=O)[O-])c(N3CCOCC3)cc21 | > 48 |
| O=C(c1cccnc1)N1CCCC(Nc2ccc(F)cc2)C1 (stereo not given) | 41.6 (≈ 139 µM) |
| Nc1c(C(=O)[O-])sc2nc3c(cc12)CCCC3 | 23.2 |
| O=C1NC(c2ccc(Br)cc2)Nc2ccccc21 (stereo not given) | 9 (≈ 29.7 µM) |
| CC(NC(=O)CN1C(=O)NC2(CCCCCCC2)C1=O)c1ccccc1 (stereo not given) | > 53.6 |
| O=C(O)c1ccc(N=Nc2c(-c3ccccc3)[nH]oc2=O)cc1 | > 46.4 |
| COc1ccc(CN(C)C(=O)c2ccc3c(=O)n4c(nc3c2)CCC4)cc1 | > 54.5 |
| COCCNC(=O)c1ccc2c(c1)CCN2S(C)(=O)=O | 44.7 (≈ 150 µM) |
| O=C(O)c1ccc(N=Cc2nc(-c3ccco3)oc2O)cc1 | > 44.7 |
| Cc1ccc(S(=O)(=O)N2CCOCC2)cc1NC(=O)COC(=O)CCc1c[nH]c2ccccc12 | 26.4 (≈ 54.4 µM) |
| O=C(O)CC(NCc1ccco1)C(=O)OCCCl (stereo not given) | > 41.4 |
| Cc1ccc(F)c(NC(=O)c2cncn2-c2ccccc2)c1 | 41.2 (≈ 140 µM) |

| Compound | solubility kinetic [µg/mL] |
| --- | --- |
| Cn1c(/C=C/c2cccc(Br)c2)nc2ccccc2c1=O | 0.7 (≈ 2.05 µM) |
| N#CCSc1nc2ccccc2c(=O)n1CCCC(=O)NCc1ccco1 | 2.5 (≈ 6.54 µM) |
| CNC(=S)NC1(C)CCS(=O)(=O)C1 (stereo not given) | > 33.3 |
| N#Cc1ccsc1NC(=O)CCS(=O)(=O)c1ccccc1 | 41.7 (≈ 130 µM) |
| COc1cccc(CC(=O)NC2CCSc3ccccc32)c1 (stereo not given) | 20.9 (≈ 66.7 µM) |
| COC(=O)Cc1ccc(NC(=S)NC2CC2)cc1 | > 39.7 |
| O=C1CC(Sc2ccc(Cl)cc2)C(=O)N1Cc1ccncc1 (stereo not given) | 18.9 (≈ 56.8 µM) |
| O=C(CSc1nccn1-c1cccc(Cl)c1)NO | > 42.6 |
| Cc1ccc(CNc2cc(C(=O)O)ccc2Cl)s1 | > 42.3 |
| Cc1ccc(CSCC(=O)NCc2ccco2)cc1 | 36.8 (≈ 134 µM) |
| CC(C)Oc1ccc(C(=O)NCC(=O)O)cc1 | > 35.6 |
| CC(C)(C)NCC(O)c1cc(O)cc(O)c1.O=S(=O)(O)O (stereo not given) | > 41.1 |
| COc1ccc(CN(C)C(=O)c2[nH]c(C)c(C(C)=O)c2C)cc1F | > 49.9 |
| Cl.Nc1ncnc2sc3c(c12)CCNC3 | > 36.4 |
| O=C(COc1ccc(S(=O)(=O)N2CCOCC2)cc1)Nc1ccc(Br)cc1 | 5.4 (≈ 11.9 µM) |
| S=C(NCCc1ccccc1)Nc1ccccc1N1CCOCC1 | > 51.2 |
| COCC(C)NC(=S)Nc1ccccc1[N+](=O)[O-] (stereo not given) | > 40.4 |
| CC(=O)NS(=O)(=O)c1ccc(NC(=S)NC(=O)C2CCC2)cc1 | > 53.3 |
| O=C(NCCc1ccccc1)C1CCCN(c2cnccn2)C1 (stereo not given) | 45.9 (≈ 148 µM) |
| CCOc1ccc(C(=O)NCc2ccco2)cc1Cl | 34.5 (≈ 123 µM) |
| Cc1cccc(OCCCCn2c(CO)nc3ccccc32)c1 | 31.4 (≈ 101 µM) |
| CN1CCN(NS(=O)(=O)c2ccc(Cl)cc2)CC1 | > 43.5 |
| Cc1c(-c2ccccc2)nc(N)c(C#N)c1-c1cccnc1 | 5 (≈ 17.5 µM) |
| Nc1cccc(Nc2ccccc2)c1 | > 27.6 |

| Compound | solubility kinetic [µg/mL] |
| --- | --- |
| COc1ccc(N(CC2CO2)S(=O)(=O)c2ccc(C)cc2)cc1 (stereo not given) | 49 (≈ 147 µM) |
| Cc1cccc(C(=O)OCCN2CCOCC2)c1.Cl | > 42.9 |
| Cc1ccc(C(=O)CSc2nc(N)cc(=O)[nH]2)cc1C | 12.8 (≈ 44.2 µM) |
| O=C1NC2(CCCC2)Oc2ccccc21 | > 30.5 |
| N#CC(C#N)=CN=c1ccn(Cc2ccc(Cl)cc2Cl)cc1 | 1.4 (≈ 4.25 µM) |
| COc1ccccc1C1Nc2ccccc2NC2=C1C(=O)CC(C)(C)C2 (stereo not given) | 51.6 (≈ 148 µM) |
| Fc1cc(F)nc(NCc2ccccc2)n1 | 12.2 (≈ 55.2 µM) |
| CCN(C(=S)NCCOC)c1cccc2ccccc12 | 12.9 (≈ 44.7 µM) |
| Cc1cc(C(=O)NCC2CCCCC2)ccc1[N+](=O)[O-] | 2.3 (≈ 8.32 µM) |
| COc1ccc(NC(=O)Nc2c[nH]c(=O)[nH]c2=O)cc1 | 10 (≈ 36.2 µM) |
| COc1cc(NC(=O)Nc2cc(C)on2)cc(OC)c1OC | 37.8 (≈ 123 µM) |
| CC(=NCc1ccco1)c1c(O)n(-c2ccccc2C)c(=O)[nH]c1=O | > 50.9 |
| CCOc1cc(C(=O)OCc2cc(=O)n3c(C)csc3n2)ccc1OC | 3.1 (≈ 8.28 µM) |
| Cc1ncc([N+](=O)[O-])n1CC(=O)Nc1ccc(Cl)cc1 | 5.7 (≈ 19.3 µM) |
| COc1ccc(NC(=S)N2CCC(Cc3ccccc3)CC2)cc1OC | 2.4 (≈ 6.48 µM) |
| CN1CCC(CN)(N2CCN(c3ccccc3)CC2)CC1 | 41.9 (≈ 145 µM) |
| O=C(Nc1cccc2ncccc12)c1ccc(OCc2ccccc2)cc1 | < 0.4 |
| N/C(Cc1nc(-c2ccc(Cl)cc2)cs1)=N/O | 32.3 (≈ 121 µM) |
| Cc1cccc(N2CCN(C(=S)NC3CCCCC3)CC2)c1C | < 0.2 |
| O=C(CN1C(=O)c2ccccc2S1(=O)=O)c1ccc(F)c(F)c1 | 48.2 (≈ 143 µM) |
| CC(C)(O)C#Cc1ccc(C(=O)NC2CCCCC2)s1 | > 43.7 |
| CCOC(=O)c1ccc(CN2C(=O)c3ccccc3S2(=O)=O)cc1 | 0.9 (≈ 2.61 µM) |
| CC(=O)Nc1ccc(S(=O)(=O)N(C)CC(=O)OCC(=O)c2ccc[nH]2)cc1 | > 59 |
| COCCCNC(=O)C(C)N1c2cccc3cccc(c23)S1(=O)=O (stereo not given) | 50.2 (≈ 144 µM) |
